Patent US10301272B2, “Carboxamide or sulfonamide substituted thiazoles and related derivatives as modulators for the orphan nuclear receptor ROR[γ]” (Phenex Pharmaceuticals AG, priority 2012, dated 2019)

These molecules were tested against RORγ (Homo sapiens, UniProt P51449) (assay: RORγ Gal4 Reporter Gene Assay). Conditions: not given.
Format: cell-based
Protocol: Determination of a ligand mediated Gal4 promoter driven transactivation to quantify ligand binding to RORγ was performed as follows: DNA encoding three different RORγ protein fragments was cloned into vector pCMV-BD (Stratagene). Expression was under control of a CMV promoter and as fusion to the DNA-binding domain of the yeast protein GAL4. Other vectors used were pFR-Luc (Stratagene) as regulated reporter plasmid. pFR-Luc contains a synthetic promoter with five tandem repeats of the yeast GAL4 binding sites that control expression of the Photinus pyralis (American firefly) luciferase gene. In order to improve experimental accuracy the plasmid pRL-CMV was cotransfected. pRL-CMV contains the constitutive CMV promoter, controlling the expression of the Renilla reniformis luciferase.
The medium is supplemented with 10% fetal bovine serum, 0.1 mM nonessential amino acids, 1 mM sodium pyruvate, 1% Glutamax and 100 units Penicilin/[…] per mL at 37° C. in 5% CO2.
For the assay, […] were plated per well in 96 well plates in 100 μL per well, incubated over night at 37° C. in 5% CO2. […] About 4 h after addition of the transfection solution, fresh Minimal Essential Medium (MEM, same composition as used for plating cells, but without serum) was added. Then compound stocks, prediluted in MEM (same composition as used for plating cells) were added (final vehicle concentration not exceeding 0.1%).
All experiments were done at least in triplicates.

RORγ, sequence (P51449 whole entry, looked up, the tested form may be a part): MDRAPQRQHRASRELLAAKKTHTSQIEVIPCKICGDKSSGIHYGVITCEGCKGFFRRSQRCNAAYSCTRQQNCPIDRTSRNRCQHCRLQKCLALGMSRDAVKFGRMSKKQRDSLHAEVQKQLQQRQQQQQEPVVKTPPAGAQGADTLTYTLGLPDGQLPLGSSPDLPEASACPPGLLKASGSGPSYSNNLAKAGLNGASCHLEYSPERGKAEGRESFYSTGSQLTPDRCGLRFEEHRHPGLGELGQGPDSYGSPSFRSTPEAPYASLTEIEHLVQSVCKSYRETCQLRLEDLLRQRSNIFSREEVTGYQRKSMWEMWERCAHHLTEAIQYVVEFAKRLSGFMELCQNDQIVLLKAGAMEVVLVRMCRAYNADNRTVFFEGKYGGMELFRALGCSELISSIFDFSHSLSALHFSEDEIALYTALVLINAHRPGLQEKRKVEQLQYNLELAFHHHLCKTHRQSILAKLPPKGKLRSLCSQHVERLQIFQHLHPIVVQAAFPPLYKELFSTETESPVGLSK

| SMILES | pIC50 (FF) | pIC50 (REN) |
| --- | --- | --- |
| CC(C)(C)NS(=O)(=O)c1ccc(-c2oc(C(=O)NC3CCS(=O)(=O)CC3)nc2CC2CCCCC2)c2ccncc12 [100/28] | nt/7.1/7.2 | nt/7.1/7.2 |
| CC(C)(C)NS(=O)(=O)c1cc(Cl)c(-c2sc(C(=O)N[C@H]3C[C@H](C(=O)O)C3)nc2CC2CCCCC2)cc1Cl [19/11] | nt/7.6/7.7 | nt/7.6/7.7 |
| CC1(NC(=O)c2cc(-c3sc(C(=O)NC4CCS(=O)(=O)CC4)nc3CC3CCCCC3)cc(C3(C)CC3)c2)COC1 [10/4] | nt/7.9/7.9 | nt/7.9/7.9 |
| CC(C)(O)CNC(=O)c1nc(CC2CCC(F)(F)CC2)c(-c2ccc(S(=O)(=O)NC(C)(C)C)c3ccccc23)s1 [21/11] | nt/8.0/8.2 | nt/8.0/8.2 |
| CC(C)(C)NS(=O)(=O)c1ccc(-c2sc(C(=O)N3CCC(C(C)(C)C(=O)O)C3)nc2CC2CCCCC2)c2ccccc12 (stereo not shown) [6/50] | nt/7.6/7.7 | nt/7.6/7.7 |
| CCN(C(C)(C)C)S(=O)(=O)c1ccc(-c2sc(C(=O)NCC(C)(C)O)nc2C(=O)N2CCC(C)CC2)c2ccccc12 [304/20] | nt/7.4/7.7 | nt/7.4/7.7 |
| CC(C)(C)NS(=O)(=O)c1ccc(-c2sc(C(=O)NC3CCS(=O)(=O)CC3)cc2CC2CCCCC2)c2ccccc12 [Example 307/1] | nt/8.4/8.5 | nt/8.4/8.5 |
| CC(C)(C)NS(=O)(=O)c1ccc(-c2nc(C(=O)N[C@H]3C[C@H](C(=O)O)C3)sc2CC2CCCCC2)c2ccccc12 [Example 25/1] | nt/8.9/8.8 | nt/8.9/8.8 |
| Cc1c(-c2sc(C(=O)NC3CCS(=O)(=O)CC3)nc2CC2CCCCC2)cc(Cl)c(S(=O)(=O)NC(C)(C)C)c1Cl [6/63] | nt/9.2/8.9 | nt/9.2/8.9 |
| CC(C)(C#N)CNC(=O)c1nc(CC2CCCCC2)c(-c2ccc(S(=O)(=O)NC(C)(C)C)c3ccccc23)s1 [6/58] | nt/8.7/8.7 | nt/8.7/8.7 |
| C[C@H](NS(=O)(=O)c1ccc(-c2sc(C(=O)NCC(C)(C)O)nc2CC2CCC2)c(C(F)(F)F)c1)C(F)(F)F [21/20] | nt/7.7/7.7 | nt/7.7/7.7 |
| CC(C)(C)NS(=O)(=O)c1ccc(-c2sc(C(=O)NC3CCS(=O)(=O)CC3)nc2CC2CCC(F)(F)CC2)c2ccccc12 [21/12] | nt/8.0/8.2 | nt/8.0/8.2 |
| CC(C)(C)NS(=O)(=O)c1ccc(-c2oc(C(=O)N3CC4(C3)CS(=O)(=O)C4)nc2CC2CCCCC2)c2ccccc12 [100/24] | nt/7.5/7.7 | nt/7.5/7.7 |
| CCC(C)(C)NS(=O)(=O)c1ccc(-c2sc(C(=O)NC3CCOCC3)nc2C(=O)N2CCC(C)CC2)c2ccccc12 [304/15] | nt/7.6/7.7 | nt/7.6/7.7 |
| CC(C)(C)NS(=O)(=O)c1ccc(-c2sc(C(=O)NC3CCS(=O)(=O)CC3)nc2-c2cccnc2)c2ccccc12 [300/12] | nt/6.1/6.2 | nt/6.1/6.2 |
| CCCc1nc(C(=O)NC2CCS(=O)(=O)CC2)sc1-c1ccc(S(=O)(=O)NC(C)(C)C)c2ccccc12 [300/7] | nt/7.7/7.9 | nt/7.7/7.9 |
| CC(C)(C)NS(=O)(=O)c1ccc(-c2sc(C(=O)NC3CCS(=O)(=O)CC3)nc2-c2cccc(C(N)=O)c2)c2ccccc12 [300/16] | nt/6.0/6.1 | nt/6.0/6.1 |
| CC1CCN(C(=O)c2nc(C(=O)NC3CC34CCOCC4)sc2-c2ccc(S(=O)(=O)NC(C)(C)C)c3ccccc23)CC1 (stereo not shown) [304/18] | nt/7.5/7.7 | nt/7.5/7.7 |
| CC1CCN(C(=O)c2nc(C(=O)NCC(C)(C)O)sc2-c2ccc(S(=O)(=O)N(CC(F)(F)F)C(C)(C)C)c3ccccc23)CC1 [304/23] | nt/7.5/7.7 | nt/7.5/7.7 |

| SMILES | pIC50 (FF) | pIC50 (REN) |
| --- | --- | --- |
| CC1CCN(C(=O)c2nc(C(=O)N3CC4(CCOCC4)C3)sc2-c2ccc(S(=O)(=O)NC(C)(C)C)c3ccccc23)CC1 [304/17] | nt/7.2/7.2 | nt/7.2/7.2 |
| CC1CCN(C(=O)c2nc(C(=O)N3CC4(CCS(=O)(=O)CC4)C3)sc2-c2ccc(S(=O)(=O)NC(C)(C)C)c3ccccc23)CC1 [304/16] | nt/6.6/6.6 | nt/6.6/6.6 |
| CC(C)(CCO)NC(=O)c1cc(-c2sc(C(=O)NC3CCS(=O)(=O)CC3)nc2CC2CCCCC2)cc(C2(C)CC2)c1 [10/3] | nt/7.9/8.0 | nt/7.9/8.0 |
| CC1CCN(C(=O)c2nc(C(=O)NCC(C)(C)O)sc2-c2ccc(S(=O)(=O)NCC(C)(C)O)c3ccccc23)CC1 [304/22] | nt/5.8/5.8 | nt/5.8/5.8 |
| CC(C)(C)NS(=O)(=O)c1ccc(-c2nc(C(=O)NC3CCS(=O)(=O)CC3)sc2CC2CCCCC2)c2ccccc12 [25/2] | nt/9.0/9.0 | nt/9.0/9.0 |
| CC(C)(O)CNC(=O)c1nc(C(F)F)c(-c2ccc(S(=O)(=O)NC(C)(C)C)c3ccccc23)s1 [Example 305, 5-(4-(N-(tert-butyl)sulfamoyl)naphthalen-1-yl)-4-(difluoromethyl)-N-(2-hydroxy-2-methylpropyl)thiazole-2-carboxamide] | nt/6.6/7.2 | nt/6.6/7.2 |
| CC1CCN(C(=O)c2nc(C(=O)NCC(C)(C)O)sc2-c2ccc(S(=O)(=O)NC3CCOC3)c3ccccc23)CC1 (stereo not shown) [304/24] | nt/6.6/6.7 | nt/6.6/6.7 |
| CC1CCCN(C(=O)c2nc(C(=O)NCC(C)(C)O)sc2-c2ccc(S(=O)(=O)NC(C)(C)C)c3ccccc23)C1C (stereo not shown) [304/9] | nt/7.3/7.4 | nt/7.3/7.4 |
| CC(C)(C)c1cc(-c2nc(C(=O)NC3CCS(=O)(=O)CC3)oc2CC2CCCCC2)cc(C2(C)CC2)c1 [103/3] | nt/6.6/6.6 | nt/6.6/6.6 |
| CC1CCN(C(=O)c2nc(C(=O)NCC(C)(C)O)sc2-c2ccc(S(=O)(=O)NC3(C)CC3)c3ccccc23)CC1 [304/27] | nt/7.6/7.5 | nt/7.6/7.5 |
| CCC(C)(C)NS(=O)(=O)c1ccc(-c2sc(C(=O)N[C@H]3C[C@H](C(=O)O)C3)nc2C(=O)N2CCC(C)CC2)c(Cl)c1C [Example 302, trans-3-(5-(2-Chloro-3-methyl-4-(N-(tert-pentyl)sulfamoyl)phenyl)-4-(4-methylpiperidine-1-carbonyl)thiazole-2-carboxamido)cyclobutanecarboxylic acid] | nt/7.3/7.5 | nt/7.3/7.5 |
| CCC(C)(C)NS(=O)(=O)c1ccc(-c2sc(C(=O)NCC(C)(C)O)nc2C(=O)N2CCC(C)CC2)c(Cl)c1C [Example 301/1] | nt/8.5/8.5 | nt/8.5/8.5 |
| CC(C)(C)NS(=O)(=O)c1ccc(-c2sc(C(=O)NC3CCS(=O)(=O)CC3)nc2C2CCC2)c2ccccc12 [300/10] | nt/7.2/7.3 | nt/7.2/7.3 |
| CC(C)(C)NS(=O)(=O)c1ccc(-c2sc(C(=O)N[C@H]3C[C@H](C(=O)O)C3)nc2C2CCCCC2)c2ccccc12 [300/17] | nt/8.0/8.0 | nt/8.0/8.0 |
| CC1CCN(C(=O)c2nc(C(=O)N3CC4(CCS(=O)(=O)CC4)C3)oc2-c2ccc(S(=O)(=O)NC(C)(C)C)c3ccccc23)CC1 [Example 306, N-(tert-Butyl)-4-(2-(7,7-dioxido-7-thia-2-azaspiro[3.5]nonane-2-carbonyl)-4-(4-methyl-piperidine-1-carbonyl)oxazol-5-yl)naphthalene-1-sulfonamide] | nt/5.6/5.6 | nt/5.6/5.6 |
| C[C@H](NC(=O)c1cc(-c2sc(C(=O)NCC(C)(C)c3nnn[nH]3)nc2CC2CCCCC2)cc(C2(C)CC2)c1)C(F)(F)F [6/62] | nt/7.5/7.5 | nt/7.5/7.5 |
| CCC(C)(C)NS(=O)(=O)c1ccc(-c2sc(C(=O)NCc3ncc(S(C)(=O)=O)s3)nc2C(=O)N2CCC(C)CC2)c(Cl)c1C [Example 303, 5-(2-Chloro-3-methyl-4-(N-(tert-pentyl)sulfamoyl)phenyl)-4-(4-methylpiperidine-1-carbonyl)-N-((5-(methylsulfonyl)thiazol-2-yl)methyl)thiazole-2-carboxamide] | nt/7.7/7.7 | nt/7.7/7.7 |
| CCC(C)(C)NS(=O)(=O)c1ccc(-c2sc(C(=O)NCC(C)(C)O)nc2CC2CCC2)c(OC(F)(F)F)c1 [21/25] | nt/7.7/7.8 | nt/7.7/7.8 |

Same assay, conditions: firefly (FF) luciferase, 293T cells

| SMILES | pIC50 (FF) |
| --- | --- |
| CC(C)(C)NS(=O)(=O)c1ccc(-c2sc(C(=O)N[C@H]3C[C@H](C(=O)O)C3)nc2CC2CCCCC2)c2ccccc12 [7/9] | 8.7 |

Same assay, conditions: firefly (FF) luciferase, 293T cells; read-out: pIC50 (FF) (converted)

| SMILES | IC50 |
| --- | --- |
| CC(C)(C)NS(=O)(=O)c1ccc(-c2sc(C(=O)N[C@H]3C[C@H](C(=O)O)C3)nc2CC2CCC2)c2ccccc12 [21/17] | 7.94 nM |
| CC(C)(C)NS(=O)(=O)c1ccc(-c2sc(C(=O)N[C@H]3C[C@H](C(=O)O)C3)nc2CC2CCC2)c(Cl)c1Cl [21/15] | 20 nM |
| C[C@H](NS(=O)(=O)c1ccc(-c2sc(C(=O)NC3CCS(=O)(=O)CC3)nc2CC2CCCC2)c2ccccc12)C(F)(F)F [8/11] | 1 nM |

Same assay, conditions: renilla normalised (RENnorm) luciferase, 293T cells

| SMILES | pIC50 (REN) |
| --- | --- |
| CC(C)(C)NS(=O)(=O)c1ccc(-c2sc(C(=O)N[C@H]3C[C@H](C(=O)O)C3)nc2CC2CCCCC2)c2ccccc12 [7/9] | 9.0 |

Same assay, conditions: renilla normalised (RENnorm) luciferase, 293T cells; read-out: pIC50 (REN) (converted)

| SMILES | IC50 |
| --- | --- |
| CC(C)(C)NS(=O)(=O)c1ccc(-c2sc(C(=O)N[C@H]3C[C@H](C(=O)O)C3)nc2CC2CCC2)c2ccccc12 [21/17] | 6.31 nM |
| CC(C)(C)NS(=O)(=O)c1ccc(-c2sc(C(=O)N[C@H]3C[C@H](C(=O)O)C3)nc2CC2CCC2)c(Cl)c1Cl [21/15] | 20 nM |
| C[C@H](NS(=O)(=O)c1ccc(-c2sc(C(=O)NC3CCS(=O)(=O)CC3)nc2CC2CCCC2)c2ccccc12)C(F)(F)F [8/11] | 1 nM |
